Results from patent US9133179B2, “2-methoxy-pyridin-4-yl-derivatives” (Actelion Pharmaceuticals Ltd., priority 2011, dated 2015).

Experiments:
rat trachea rings [1] = assay: Measurement of isometric force development: constriction of rat trachea rings; settings: in % of the constriction induced by 50 mM KCl
Procedure: (§1) Measurement of Isometric Force Development
(§2) Female Wistar rats are euthanized by exposure to CO2. The tracheae are excised and rings from the lower segments are prepared. […] A resting force of 2 g (20 mN) is applied to the ring preparation, and changes in force generation are measured using an isometric force recorder (EMKA Technologies Inc., Paris, France). Viability of rings is assessed by exposure to a depolarizing concentration of KCl (50 mM). Contraction of trachea is expressed as a percentage of the response to KCl.
(§3) The compounds are prepared as stock solutions of 0.3 mM in pure DMSO.

[2] = target: T1, human S1P1 (EDG1) receptor (Homo sapiens, UniProt P21453); assay: S1P1 β-arrestin recruitment (Tango) assay to determine EC50 values; type: cell-based; settings: Tango-EDG1 bla U2OS cells, 16 h incubation
T1 construct: host or cells: U2OS (Tango EDG1-bla U2OS)

circulating lymphocytes = assay: Assessment of in vivo efficacy: circulating lymphocytes after oral administration to Wistar rats; design: species or system rat; settings: 6 h after oral administration of 10 mg/kg, normotensive male Wistar rats, compared to vehicle group
rat trachea rings [3] = tested on: rat trachea rings
Procedure: as §1, §2, §3

T1 sequence (P21453 whole entry): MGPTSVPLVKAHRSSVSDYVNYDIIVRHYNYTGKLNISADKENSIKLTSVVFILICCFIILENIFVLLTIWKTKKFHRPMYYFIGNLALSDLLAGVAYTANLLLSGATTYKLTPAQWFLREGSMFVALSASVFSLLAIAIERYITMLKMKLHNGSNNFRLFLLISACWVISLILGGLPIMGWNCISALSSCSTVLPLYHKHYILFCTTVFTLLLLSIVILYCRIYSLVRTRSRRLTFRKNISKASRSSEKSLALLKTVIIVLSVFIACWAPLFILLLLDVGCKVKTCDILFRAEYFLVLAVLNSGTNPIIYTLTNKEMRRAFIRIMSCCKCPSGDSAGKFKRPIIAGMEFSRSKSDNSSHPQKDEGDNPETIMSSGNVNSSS

EC50 [2]: 0.1 nM
concentration at which significant (or KCl-comparable) rat trachea constriction is shown (rat trachea rings [3]): 0.1 µM
Substance: 4-((2-(4-(5-(2-Cyclopentyl-6-methoxypyridin-4-yl)-1,2,4-oxadiazol-3-yl)-2-ethyl-6-methylphenoxy)ethyl)amino)-4-oxobutanoic acid [Example 50]
% trachea constriction at 10 nM (rat trachea rings [1]; 10 nM): <5%
% trachea constriction at 30 nM (rat trachea rings [1]; 30 nM): 55%
% trachea constriction at 0.1 μM (rat trachea rings [1]; 0.1 μM): 103%
Lymphocyte counts (circulating lymphocytes): −57%
